Assay results reported in the supplement of paper PMC10307832.

Assays:
Assay in all cases: relative viability (nuclei count vs DMSO), 5 days (fraction); higher = more cells survive
Gemcitabine + Foretinib = compound: Nc1ccn([C@@H]2O[C@H](CO)[C@@H](O)C2(F)F)c(=O)n1 [Gemcitabine] + COc1cc2c(Oc3ccc(NC(=O)C4(C(=O)Nc5ccc(F)cc5)CC4)cc3F)ccnc2cc1OCCCN1CCOCC1 [Foretinib] (partner 0.25 µM)
In short: (§1)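 A single step with final 0.05% Triton X-100, 1% formaldehyde and 1 ug/ml Hoechst fixed the cells and stained nuclei 5 days after treatment. Lung cancer cell lines in 1536-well plates had been treated by pin tool the day after seeding with one drug alone or a fixed anchor-drug dose plus five library-drug doses (not always all listed) in √10 steps, and nuclei were counted on 4× images. Relative viability is the ratio of nuclei in treated wells to nuclei in vehicle wells, taken as the median of duplicate plates.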

Gemcitabine + Pictilisib = compound: Nc1ccn([C@@H]2O[C@H](CO)[C@@H](O)C2(F)F)c(=O)n1 [Gemcitabine] + CS(=O)(=O)N1CCN(Cc2cc3nc(-c4cccc5[nH]ncc45)nc(N4CCOCC4)c3s2)CC1 [Pictilisib] (partner 1 µM)
In short: as §1

Gemcitabine + AZD7762 = compound: Nc1ccn([C@@H]2O[C@H](CO)[C@@H](O)C2(F)F)c(=O)n1 [Gemcitabine] + NC(=O)Nc1cc(-c2cccc(F)c2)sc1C(=O)N[C@H]1CCCNC1 [AZD7762] (partner 0.2 µM)
In short: as §1

Gemcitabine + Vorinostat = compound: Nc1ccn([C@@H]2O[C@H](CO)[C@@H](O)C2(F)F)c(=O)n1 [Gemcitabine] + O=C(CCCCCCC(=O)Nc1ccccc1)NO [Vorinostat] (partner 1 µM)
In short: as §1

Cell Line	relative viability (Gemcitabine + Foretinib; first compound 0.001 µM)	relative viability (Gemcitabine + Foretinib; first compound 0.003162 µM)	relative viability (Gemcitabine + Foretinib; first compound 0.01 µM)	relative viability (Gemcitabine + Foretinib; first compound 0.03162 µM)	relative viability (Gemcitabine + Foretinib; first compound 0.1 µM)	relative viability (Gemcitabine + Pictilisib; first compound 0.001 µM)	relative viability (Gemcitabine + Pictilisib; first compound 0.003162 µM)	relative viability (Gemcitabine + Pictilisib; first compound 0.01 µM)	relative viability (Gemcitabine + Pictilisib; first compound 0.03162 µM)	relative viability (Gemcitabine + Pictilisib; first compound 0.1 µM)	relative viability (Gemcitabine + AZD7762; first compound 0.001 µM)	relative viability (Gemcitabine + AZD7762; first compound 0.003162 µM)	relative viability (Gemcitabine + AZD7762; first compound 0.01 µM)	relative viability (Gemcitabine + AZD7762; first compound 0.03162 µM)	relative viability (Gemcitabine + AZD7762; first compound 0.1 µM)	relative viability (Gemcitabine + Vorinostat; first compound 0.001 µM)	relative viability (Gemcitabine + Vorinostat; first compound 0.003162 µM)	relative viability (Gemcitabine + Vorinostat; first compound 0.01 µM)	relative viability (Gemcitabine + Vorinostat; first compound 0.03162 µM)	relative viability (Gemcitabine + Vorinostat; first compound 0.1 µM)
201T	1.06	0.994	0.914	0.217	0.177	0.692	0.71	0.686	0.496	0.321	0.59	0.584	0.237	0.225	0.233	0.999	1.04	0.93	0.43	0.253
NCI-H838	1.12	1.26	0.999	0.435	0.17	0.476	0.501	0.468	0.346	0.141	0.93	0.886	0.648	0.565	0.616	0.77	0.777	0.66	0.479	0.168
PC-14	0.953	0.649	0.293	0.0827	0.0507	0.684	0.435	0.139	0.036	0.0292	0.269	0.0798	0.0434	0.0466	0.0618	0.82	0.165	0.0458	0.0558	0.0381
LK-2	1.16	1.13	0.808	0.276	0.18	0.527		0.419	0.271	0.288	0.455	0.251	0.0955	0.105	0.0964	0.265	0.268	0.155	0.164	0.146
NCI-H1944	0.891	0.992	0.847	0.345	0.199	0.352	0.373	0.355	0.241	0.22	0.518	0.36	0.0907	0.109	0.086	0.59	0.572	0.321	0.192	0.131
HCC-78	0.502	0.44	0.416	0.267	0.241	0.198	0.247	0.201	0.148	0.132	0.477	0.303	0.186	0.214	0.277	0.405	0.276	0.215	0.225	0.23
NCI-H2405	0.996	1	0.676	0.254	0.229	0.432	0.255	0.272	0.2	0.122	0.518	0.23	0.193	0.193	0.195	1.03	0.784	0.543	0.243	0.197
EMC-BAC-2	1.03	1.03	0.885	0.201	0.201	0.615	0.58	0.402	0.196	0.184	1.18	0.723	0.224	0.301	0.232	0.343	0.402	0.234	0.148	0.198
NCI-H596	0.635	0.706	0.287	0.196	0.309	0.369	0.436	0.438	0.335	0.293	1.24	0.717	0.275	0.319	0.235	0.657	0.497	0.272	0.251	0.2
LCLC-97TM1	0.886	0.832	0.597	0.136	0.118	0.141	0.167	0.126	0.11	0.12	0.105	0.0523	0.0434	0.0523	0.0703	0.51	0.314	0.149	0.0661	0.0642
H3255	1.04	0.666	0.782	0.273	0.229	0.524	0.299	0.334	0.194	0.137	1	0.604	0.37	0.203	0.248	0.834	0.848	0.289	0.296	0.251
LXF-289	0.974	0.966	0.803	0.106	0.107	0.761	0.758	0.592	0.275	0.11	1.1	0.767	0.0873	0.0797	0.088	0.754	0.731	0.292	0.107	0.0902
LC-2-ad	0.943	0.829	0.712	0.206	0.158	0.517	0.726	0.242	0.129	0.105	0.86	0.852	0.25	0.185	0.18	0.7	0.804	0.665	0.522	0.199
A-427	1.09	0.948	0.598	0.181	0.155	0.748	0.673	0.438	0.155	0.0739	0.472	0.302	0.174	0.188	0.146	0.826	0.857	0.671	0.321	0.284
NCI-H322M	0.985	0.383	0.289	0.272	0.29	0.445	0.178	0.251	0.239	0.244	0.458	0.382	0.356	0.423	0.419	0.864	0.408	0.337	0.384	0.44
HCC-366	0.965	0.989	0.417	0.0476	0.0377	0.188	0.136	0.0591	0.0347	0.0366	0.27	0.16	0.0204	0.0203	0.0152	0.361	0.458	0.134	0.0306	0.0198
